# According to PubChem BioAssay (NCI):
#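 Method: 48-hour compound exposure of cells in 96-well plates, five concentrations, linear interpolation of endpoints. The concentration for full growth arrest is given as TGI.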
# Legend:
# Assay in all cases: growth of human tumour cells (NCI), 48 h
# 786-0 renal = test system: 786-0 renal
# A498 renal = test system: A498 renal
# A549 NSCLC = test system: A549 NSCLC
# ACHN renal = test system: ACHN renal
# BT-549 breast = test system: BT-549 breast
# CAKI-1 renal = test system: CAKI-1 renal
# CCRF-CEM leukemia = test system: CCRF-CEM leukemia
# COLO 205 colon = test system: COLO 205 colon
# DU-145 prostate = test system: DU-145 prostate
# EKVX NSCLC = test system: EKVX NSCLC
# HCC-2998 colon = test system: HCC-2998 colon
# HCT-116 colon = test system: HCT-116 colon
# HCT-15 colon = test system: HCT-15 colon
# HL-60(TB) leukemia = test system: HL-60(TB) leukemia
# HOP-62 NSCLC = test system: HOP-62 NSCLC
# HOP-92 NSCLC = test system: HOP-92 NSCLC
# HS 578T breast = test system: HS 578T breast
# HT29 colon = test system: HT29 colon
# IGROV1 ovarian = test system: IGROV1 ovarian
# K-562 leukemia = test system: K-562 leukemia
# KM12 colon = test system: KM12 colon
# LOX IMVI melanoma = test system: LOX IMVI melanoma
# M14 melanoma = test system: M14 melanoma
# MALME-3M melanoma = test system: MALME-3M melanoma
# MCF7 breast = test system: MCF7 breast
# MDA-MB-231 breast = test system: MDA-MB-231 breast
# MDA-MB-435 = test system: MDA-MB-435
# MDA-N = test system: MDA-N
# MOLT-4 leukemia = test system: MOLT-4 leukemia
# NCI-H226 lung = test system: NCI-H226 lung
# NCI-H23 lung = test system: NCI-H23 lung
# NCI-H460 lung = test system: NCI-H460 lung
# NCI-H522 lung = test system: NCI-H522 lung
# NCI/ADR-RES ovarian = test system: NCI/ADR-RES ovarian
# OVCAR-3 ovarian = test system: OVCAR-3 ovarian
# OVCAR-4 ovarian = test system: OVCAR-4 ovarian
# OVCAR-5 ovarian = test system: OVCAR-5 ovarian
# OVCAR-8 ovarian = test system: OVCAR-8 ovarian
# PC-3 prostate = test system: PC-3 prostate
# RPMI-8226 leukemia = test system: RPMI-8226 leukemia
# RXF 393 renal = test system: RXF 393 renal
# SF-268 CNS = test system: SF-268 CNS
# SF-295 CNS = test system: SF-295 CNS
# SF-539 CNS = test system: SF-539 CNS
# SK-MEL-2 melanoma = test system: SK-MEL-2 melanoma
# SK-MEL-28 melanoma = test system: SK-MEL-28 melanoma
# SK-MEL-5 melanoma = test system: SK-MEL-5 melanoma
# SK-OV-3 ovarian = test system: SK-OV-3 ovarian
# SN12C renal = test system: SN12C renal
# SNB-19 CNS = test system: SNB-19 CNS
# SNB-75 CNS = test system: SNB-75 CNS
# SR leukemia = test system: SR leukemia
# SW-620 colon = test system: SW-620 colon
# T-47D breast = test system: T-47D breast
# TK-10 renal = test system: TK-10 renal
# U251 CNS = test system: U251 CNS
# UACC-257 melanoma = test system: UACC-257 melanoma
# UACC-62 melanoma = test system: UACC-62 melanoma
# UO-31 renal = test system: UO-31 renal
smiles,measurement,setting,value
COc1cc(-c2[o+]c3cc(O)cc(O)c3cc2O)cc(O)c1O,TGI,786-0 renal,> 100 µM
same,TGI,A498 renal,> 100 µM
same,TGI,A549 NSCLC,> 100 µM
same,TGI,ACHN renal,> 100 µM
same,TGI,BT-549 breast,> 100 µM
same,TGI,CAKI-1 renal,> 100 µM
same,TGI,CCRF-CEM leukemia,75.9 µM
same,TGI,COLO 205 colon,> 100 µM
same,TGI,DU-145 prostate,> 100 µM
same,TGI,EKVX NSCLC,> 100 µM
same,TGI,HCC-2998 colon,> 100 µM
same,TGI,HCT-116 colon,> 100 µM
same,TGI,HCT-15 colon,> 100 µM
same,TGI,HL-60(TB) leukemia,> 100 µM
same,TGI,HOP-62 NSCLC,> 100 µM
same,TGI,HOP-92 NSCLC,> 100 µM
same,TGI,HS 578T breast,> 100 µM
same,TGI,HT29 colon,> 100 µM
same,TGI,IGROV1 ovarian,> 100 µM
same,TGI,K-562 leukemia,> 100 µM
same,TGI,KM12 colon,> 100 µM
same,TGI,LOX IMVI melanoma,> 100 µM
same,TGI,M14 melanoma,> 100 µM
same,TGI,MALME-3M melanoma,> 100 µM
same,TGI,MCF7 breast,46.3 µM
same,TGI,MDA-MB-231 breast,> 100 µM
same,TGI,MDA-MB-435,38.3 µM
same,TGI,MDA-N,> 100 µM
same,TGI,MOLT-4 leukemia,> 100 µM
same,TGI,NCI-H226 lung,> 100 µM
same,TGI,NCI-H23 lung,> 100 µM
same,TGI,NCI-H460 lung,> 100 µM
same,TGI,NCI-H522 lung,> 100 µM
same,TGI,NCI/ADR-RES ovarian,> 100 µM
same,TGI,OVCAR-3 ovarian,> 100 µM
same,TGI,OVCAR-4 ovarian,> 100 µM
same,TGI,OVCAR-5 ovarian,> 100 µM
same,TGI,OVCAR-8 ovarian,> 100 µM
same,TGI,PC-3 prostate,> 100 µM
same,TGI,RPMI-8226 leukemia,> 100 µM
same,TGI,RXF 393 renal,> 100 µM
same,TGI,SF-268 CNS,> 100 µM
same,TGI,SF-295 CNS,> 100 µM
same,TGI,SF-539 CNS,> 100 µM
same,TGI,SK-MEL-2 melanoma,> 100 µM
same,TGI,SK-MEL-28 melanoma,> 100 µM
same,TGI,SK-MEL-5 melanoma,> 100 µM
same,TGI,SK-OV-3 ovarian,> 100 µM
same,TGI,SN12C renal,> 100 µM
same,TGI,SNB-19 CNS,> 100 µM
same,TGI,SNB-75 CNS,> 100 µM
same,TGI,SR leukemia,> 100 µM
same,TGI,SW-620 colon,> 100 µM
same,TGI,T-47D breast,> 100 µM
same,TGI,TK-10 renal,> 100 µM
same,TGI,U251 CNS,> 100 µM
same,TGI,UACC-257 melanoma,> 100 µM
same,TGI,UACC-62 melanoma,> 100 µM
same,TGI,UO-31 renal,> 100 µM
O=C(c1ccc(Cl)cc1)N(C(=S)OCc1ccccn1)c1ccccc1,TGI,786-0 renal,> 100 µM
same,TGI,A498 renal,> 100 µM
same,TGI,ACHN renal,> 100 µM
same,TGI,BT-549 breast,> 100 µM
same,TGI,CAKI-1 renal,> 100 µM
same,TGI,CCRF-CEM leukemia,> 100 µM
same,TGI,COLO 205 colon,> 100 µM
same,TGI,DU-145 prostate,> 100 µM
same,TGI,EKVX NSCLC,84.4 µM
same,TGI,HCT-116 colon,> 100 µM
same,TGI,HCT-15 colon,> 100 µM
same,TGI,HL-60(TB) leukemia,> 100 µM
same,TGI,HOP-62 NSCLC,75.7 µM
same,TGI,HS 578T breast,> 100 µM
same,TGI,HT29 colon,> 100 µM
same,TGI,IGROV1 ovarian,> 100 µM
same,TGI,K-562 leukemia,> 100 µM
same,TGI,KM12 colon,> 100 µM
same,TGI,LOX IMVI melanoma,> 100 µM
same,TGI,M14 melanoma,> 100 µM
same,TGI,MALME-3M melanoma,> 100 µM
same,TGI,MCF7 breast,> 100 µM
same,TGI,MDA-MB-231 breast,> 100 µM
same,TGI,MDA-MB-435,> 100 µM
same,TGI,MDA-N,> 100 µM
same,TGI,MOLT-4 leukemia,> 100 µM
same,TGI,NCI-H226 lung,> 100 µM
same,TGI,NCI-H23 lung,> 100 µM
same,TGI,NCI/ADR-RES ovarian,> 100 µM
same,TGI,OVCAR-3 ovarian,> 100 µM
same,TGI,OVCAR-5 ovarian,> 100 µM
same,TGI,OVCAR-8 ovarian,> 100 µM
same,TGI,PC-3 prostate,> 100 µM
same,TGI,RPMI-8226 leukemia,> 100 µM
same,TGI,RXF 393 renal,56.6 µM
same,TGI,SF-268 CNS,> 100 µM
same,TGI,SF-295 CNS,> 100 µM
same,TGI,SF-539 CNS,> 100 µM
same,TGI,SK-MEL-2 melanoma,> 100 µM
same,TGI,SK-MEL-28 melanoma,> 100 µM
same,TGI,SK-MEL-5 melanoma,> 100 µM
same,TGI,SK-OV-3 ovarian,> 100 µM
same,TGI,SN12C renal,> 100 µM
same,TGI,SNB-19 CNS,> 100 µM
same,TGI,SR leukemia,> 100 µM
same,TGI,SW-620 colon,> 100 µM
same,TGI,T-47D breast,93.5 µM
same,TGI,TK-10 renal,> 100 µM
same,TGI,U251 CNS,> 100 µM
same,TGI,UACC-257 melanoma,> 100 µM
same,TGI,UACC-62 melanoma,> 100 µM
same,TGI,UO-31 renal,> 100 µM
